From article PMC3049593 (British Journal of Cancer, 2011)

Key:
[1] = tumour and tissue pharmacokinetics of [3H]-PG545 in Hep3b tumour-bearing mice; assay type: in vivo; conditions: for tumour AUC0-t / tumour Cmax: model independent analysis; for Kt, rate constant of uptake from the tumor / t½b / t½t: one compartment model
Source text: (§1) Analysis of the tumour [^3H]-PG545 concentration vs time data required use of a more physiologically based PK model such that tumour concentrations were estimated from the tumour mass being perfused with blood containing [^3H]-PG545 and where the blood [^3H]-PG545 concentration changed over time.
Table S1 – Pharmacokinetic analysis of mean tumour [3H]-PG545 concentrations in […]
Model Independent Analysis of Mean Tumor [3H]-PG545 Conc. Versus Time Data Parameter First Dose Second Dose Third Dose Notes: Cmax and Tmax were derived from visual inspection of the data following Cmax (µ g/ml) 37 45 44 s.c. administration of up to three doses of […]
One Compartment Model derived from Mean Tumor [3H]-PG545 Conc. Versus Time Data Parameter First Dose Second Dose Third Dose Notes: Based on assumptions including - 1) All processes are linear with no […]
timeframe of the experiment.
3) Tumor [3H]-PG545 conc is driven by the blood conc of [3H]-PG545 t½t (h) 15.7 15.4 16.3 4) Rate of uptake is proportional to blood […]
5) Rate of return from tumor to blood is proportional to tumor conc.
Kb is the rate constant of uptake into the tumor, in h-1
Kt is the rate constant of uptake from the tumor, in h-1 […]
(§2) Pharmacokinetic sampling and analysis
(§3) Samples were collected from three animals at each of four time points – 12 hours, 24 hours, 48 hours and 96 hours post-treatment. At each of these times, whole blood was collected by cardiac puncture and tumours were excised. After collection, 0.2 mL of whole blood was added to a glass scintillation vial to which 1 mL Solvable was added.
(§4) Samples were incubated for one hour at 55-60°C. 0.1 mL of 0.1 M EDTA-di-sodium salt solution and 0.3 mL to 0.5 mL of 30% hydrogen peroxide in 0.1 mL aliquots were added to the sample. Samples were gently agitated between additions to allow reaction foaming to subside. Samples were incubated for 30 minutes at room temperature. Vials were capped tightly and incubated again at 55 – 60 °C fo r 1 hour. Samples were cooled to room temperature and 15 mL of ULTIMA Gold added.
(§5) For tumour samples, 100 mg of tissue was placed in a 20 mL glass scintillation vial and 2 mL of Solvable added. The samples were incubated at 50 - 60 °C for 1 hour with occasional swirling. Samples were cooled to room temperature and for tumours, 0.3 mL of 30% hydrogen peroxide in three aliquots of 0.1 mL were added. The samples were again incubated at 50 - 60 °C for 1 hour with occasional swirling. Tumours samples were […]
(§6) then treated with 15 mL of ULTIMA Gold. To count radioactivity, a Tri-Carb 2800TR liquid scintillation counter from PerkinElmer was used at the Institute of Medical and Veterinary Science (Adelaide, Australia). All parameters were calculated using the QuantaSmart software package. Where DPM values were missing, the following procedure was performed. Efficiency was calculated by generating an efficiency curve using complete samples (where efficiency = Counts Per Minute/Disintegrations Per Minute), and plotted these values against the provided corresponding transformed spectral index of external standard (tSIE) values.
(§7) The pharmacokinetic parameters, Cmax (maximum plasma concentration), Tmax (time of maximum plasma concentration), kelim (terminal elimination rate constant), t½ (half-life), and AUC (area under the concentration versus time curve) were derived from the blood [3H]-PG545 concentration versus time data using model independent methods. In addition, a linear pharmacokinetic model comprising mono-exponential absorption and bi-exponential disposition and elimination was used to simultaneously model the mean blood concentration versus time data for [3H]-PG545 and the following pharmacokinetic parameters, Cmax and Tmax, t½, AUC0-t and AUC0-∞ for [3H]-PG545 were estimated.
(§8) Analysis of the tumour [3H]-PG545 concentration versus time data required use of a more physiologically-based pharmacokinetic model such that tumour concentrations were estimated on the basis of the tumour mass being perfused with blood containing [3H]- […]

[2] = blood pharmacokinetics of [3H]-PG545 in Hep3b tumour-bearing mice; assay type: in vivo; conditions: for AUC0−t / Cmax / Tmax / t½: blood, 20 mg kg^−1 every 96 h
Method: as §1, with “time. […]” for “time.”
as §2, §3, §4, §5, §6, §7, §8
(Applied Biosystems) preceded by a Spark Symbiosis Direct On-line Solid Phase Extraction system. Briefly, using a deep-well 96-well plate, 100 µL plasma was mixed with 10 µL standard solution (or water for unknowns) plus 10 µL internal standard solution (PG562 at 100 µg/mL (deionised water for double blank)).This was then mixed for at least 1 min (Ratek Platform Shaker) and incubated at room temperature for 20 mins prior to addition of 25 µL SDS solution (10 mg SDS in 1 mL deionised water) + 75 µL CHAPS solution (50 mg CHAPS in 1 mL deionised water) and 50 µL Proteinase K solution (10 mg Proteinase K in 1 mL 5 mM CaCl2). Following a mixing step this was incubated at 37°C for 2.5 hours prior to addition of 250 µL deionised water and placed into the Spark Symbiosis system.
The Tmax and Cmax on each sampling day were determined for each dose level by visual inspection of the mean data. […]

[3] = system: LL/2 tumours and lung metastases; experiment: syngeneic Lewis Lung Carcinoma (LL/2) tumour growth and spontaneous metastasis model; assay type: in vivo, mice
Method: (§9) In the orthotopic Hep3b2.1-7 human liver cancer model, treatment of mice (n=10) began 14 days after inoculation of 2.5 × 10^6 cells. […] To initiate tumour xenografts, MDA-MB-231, PC3, Cal27 and HepG2 cells were injected s.c. into nude mice (n=8) at 4, 5, 2 and 2 × 10^7 cells ml^−1, respectively. […] In the B16F0 lung metastasis model, 2 × 10^5 cells were injected via the tail vein of C57Bl6 mice (n=8). […] Surface lung macrometastases were counted for each group (n=9) upon study termination. In the intrasplenic HT-29 xenograft model, 1 × 10^6 cells in 100 μl were injected into the spleen. […] Solid tumours were measured in two dimensions (length and width) and the tumour volume (cm^3) was calculated using the equation: V=length × width^2 × π/6. The anti-tumour activity was expressed as percent tumour growth inhibition (%TGI). Further details are available in Supplementary Methods. […]
(§10) efficacy/PK study) using either a once or twice weekly dosing schedule (see figure legends for dose schedules in each study) for up to three weeks. […]
In the LL/2 mouse model, treatment of mice commenced on the day of inoculation (Day 0). Mice inoculated subcutaneously were treated with either Vehicle Control […]
once weekly or Sorafenib (60mg/kg, once daily, p.o.). The treatments were continued for three weeks. The lungs were excised from all mice at the time of culling for metastasis […]
count determination. […]
(§11) In relevant models, solid tumours were measured in two dimensions (length and width) and the tumour volume (mm3) calculated using the equation V = length × width2 × π/6.The anti-tumour activity was assessed by the comparison of the mean tumour volume of the treated groups to the mean tumour volume of the control group and expressed as the percent Tumour Growth Inhibition (TGI) using the equation:
(§12) %TGI = (1-((VendPG545 - VstartPG545) / (VendControl - VstartControl)))*100 VendPG545 = Ending Tumour Volume of PG545-treated animal
(§13) VstartPG545 = Starting Tumour Volume of PG545-treated animal
(§14) VendControl = Ending Tumour Volume of Control animal
(§15) VstartControl = Starting Tumour Volume of Control animal […]
(§16) After collection, 0.2 mL of […]
(§17) whole blood was added to a glass scintillation vial to which 1 mL Solvable was added.
as §4, §5

[4] = system: Hep3b2.1-7 tumours; experiment: orthotopic Hep3b2.1-7 human liver cancer model; assay type: in vivo, mice; conditions: 30 mg kg^−1 daily
Method: as §9
In the Hep3b2.1-7 model, the cells resuspended in HBSS:MatrigelTM (1:1, v/v) to a final concentration of 5 x 10^8 cells/mL were inoculated following an incision into the skin directly over the liver to expose the main lobe of the liver. The needle was introduced into the main lobe of the liver, where 2.5 x 106 Hep3b2.1-7 cells (in 5 µL with 50% Matrigel) were discharged. The treatment of mice began 24 days after inoculation of the […]
either a once or twice weekly dosing schedule (see figure legends for dose schedules in each study) for up to three weeks. […]
as §10, §11, §12, §13, §14, §15, §16, §17
as §4, with “Vials were capped tightly and incubated again at 55 – 60 °C fo r 1 hour. Samples were cooled to room temperature and 15 mL of ULTIMA Gold added.” left out

[5] = 20 mg kg^−1 s.c. every 96 h, three doses

## [3H][C@H]1[C@H](O[C@@H]2O[C@H](COS(=O)(=O)[O-])[C@@H](O[C@H]3O[C@H](COS(=O)(=O)[O-])[C@@H](O[C@H]4O[C@H](COS(=O)(=O)[O-])[C@@H](O[C@H]5O[C@H](COS(=O)(=O)[O-])[C@@H](OS(=O)(=O)[O-])[C@H](OS(=O)(=O)[O-])[C@H]5OS(=O)(=O)[O-])[C@H](OS(=O)(=O)[O-])[C@H]4OS(=O)(=O)[O-])[C@H](OS(=O)(=O)[O-])[C@H]3OS(=O)(=O)[O-])[C@H](OS(=O)(=O)[O-])[C@H]2OS(=O)(=O)[O-])C[C@@H]2CC[C@H]3[C@@H]4CC[C@H]([C@H](C)CCCC(C)C)[C@@]4(C)CC[C@@H]3[C@@]2(C)[C@H]1[3H].[Na+].[Na+].[Na+].[Na+].[Na+].[Na+].[Na+].[Na+].[Na+].[Na+].[Na+].[Na+].[Na+] [[^3H]-PG545]
[1]; following a single dose
  Cmax in kidney: 39 µg/g
  Cmax in liver: 106 µg/g
[1]; first dose
  tumour AUC0-t: 2800 µ g.h/g
  tumour Cmax: 37 µ g/ml
  Kt, rate constant of uptake from the tumor: 0.0441 h⁻¹
  t½b: 12.8 h
  t½t: 15.7 h
[1]; second dose
  tumour AUC0-t: 3662 µ g.h/g
  tumour Cmax: 45 µ g/ml
  Kt, rate constant of uptake from the tumor: 0.0449 h⁻¹
  t½b: 13.3 h
  t½t: 15.4 h
[1]; third dose
  tumour AUC0-t: 3304 µ g.h/g
  tumour Cmax: 44 µ g/ml
  Kt, rate constant of uptake from the tumor: 0.0425 h⁻¹
  t½b: 16.5 h
  t½t: 16.3 h
[1]; one-compartment PK model
  t½b, uptake from the bloodstream into the tumour (range over doses): 12.8 to 16.5 h
[1]; tumour tissue, 20 mg kg^−1 s.c. every 96 h, three doses
  tumour Cmax (range over doses): 36.6 to 45.1 µg/g
[1]; tumour tissue, one dose (first dose)
  tumour Tmax: 12 h
[1]; tumour tissue, three doses (third dose)
  tumour Tmax: ≥ 96 h
[1]; tumour tissue, two doses (second dose)
  tumour Tmax: 48 h
[2]; [5]
  mean blood Cmax (range over doses): 25900 to 29000 ng/mL
  mean blood Tmax (range over doses): 2 to 6 h
[2]; 20 mg kg^−1 s.c., up to three bolus doses at 96 h intervals
  mean elimination half-life (t½) in blood: > 50 h
[2]; first dose
  AUC0−t: 991 µg·h/mL
  Cmax: 28000 ng/mL
  Tmax: 4 h
  t½: 65 h
[2]; second dose
  AUC0−t: 1208 µg·h/mL
  Cmax: 26000 ng/mL
  Tmax: 2 h
[2]; third dose
  AUC0−t: 1556 µg·h/mL
  Cmax: 29000 ng/mL
  Tmax: 6 h
  t½: 117 h

## CNC(=O)c1cc(Oc2ccc(NC(=O)Nc3ccc(Cl)c(C(F)(F)F)c3)cc2)ccn1 [sorafenib, reference compound]
[3]; 60 mg kg^−1 daily
  effect on metastasis: no effect on metastasis
[3]; 60 mg kg^−1 qd
  TGI (primary tumour): 44%
[4]
  TGI: 58%
